Results on four compounds are retold here after article PMC12441861, “Next-Generation Lipid Prodrugs Orally Deliver Tenofovir via Enhanced Chylomicron Incorporation” (ACS Pharmacology & Translational Science, 2025).

Molecules are shown by their SMILES. Like-named read-outs stand apart in the source and are kept apart here.

Series [1] is described as follows: Metabolic stability in human liver microsomes. Format: in vitro ADME. Conditions: pH 7.4, read-out: Metabolic Stability HLM t1/2. Here is the method:
Assays employed human liver microsomes (HLMs, 20 mg/mL) from Xenotech. A 10 mM NADPH stock was prepared in deionized H2O, and test compounds were dissolved in 100% MeOH to a final concentration of 10 mM. The stock solutions were diluted to 500 μM in 100 mM potassium phosphate buffer (pH 7.4), keeping the final MeOH concentration below 0.2%. Reaction mixtures were prepared by combining 928 μL phosphate buffer, 55 μL liver microsomes, and the test compound solution to a final concentration of 3 μM. Verapamil was used as a positive control. The reactions were initiated with the addition of 110 μL of 10 mM NADPH. Aliquots were taken in duplicate at 0, 5, 10, 15, and 30 min, quenched with 100 μL of cold MeOH containing 2 μM internal standard (d 5-7-ethoxy coumarin), and centrifuged at 12,000 RCF for 5 min. The supernatants were then transferred to LC-MS vials for analysis. The average of each duplicate was normalized to the 0 min time point, representing 100% remaining (0% metabolism).

A short description of series [2]: Metabolic stability in mouse liver microsomes. Format: in vitro ADME. To be noted: pH 7.4, read-out: Metabolic Stability MLM t1/2.
Series [3] can be described thus: Mouse oral PK and tissue distribution, fed state. Conditions: for Tmax / AUC(0-t) / Cmax: male, C57BL/6, mouse; for AUC(0-t): read-out: Plasma AUC0-18h; for improvement in lung AUC over TXL / improvement in lung AUC over non-BOG counterpart (21a vs 15a, 21b vs 15b) / increase in plasma AUC relative to TXL / increase in plasma AUC relative to non-BOG counterpart (21a vs 15a, 21b vs 15b) / increase in plasma Cmax relative to TXL / increase in plasma Cmax relative to non-BOG counterpart (21a vs 15a, 21b vs 15b): 10 mg/kg oral. Format: in vivo. The source says:
Given the increased packaging of the CF3-modified lipids into CMs compared to their ω-unmodified congeners, we selected these compounds for PK studies in mice. We hypothesized that, following oral administration, our modified prodrugs would favor CM-mediated transport into the lymphatics over absorption into mesenteric veins feeding into the portal system. By circumventing direct transport to the liver, these prodrugs are expected to achieve elevated levels in the lung relative to the liver, as lymph empties into the jugular venous angle and mixes with blood en route to the pulmonary arteries (Figure ). For all mouse PK experiments, prodrugs were formulated in a 9:1 mixture of olive oil and ethanol, then administered to male C57BL/6 mice via oral gavage at a dose of 10 mg/kg. Organs (liver, lung, and plasma) were harvested at 1, 2, 4, 8, and 18 h postdose, per the protocol described by our groups previously. Concentrations of prodrug were quantified using LC-MS/MS after tissue homogenization, extraction, and sample preparation.
The compounds TXL, 15a, 15b, 21a, 21b, and a vehicle control were prepared at a concentration of 1 mg/mL in a 90:10 solution of olive oil (Sigma-Aldrich, cat. No. O1514) and 190-proof ethanol. The dosing for each mouse was calculated based on individual body weights to achieve a final dose of 10 mg/kg. For example, a 20 g mouse would receive 200 μL of the 1 mg/mL drug formulation, while a 25 g mouse would receive 250 μL.
In accordance with the American Chemical Society Guidelines to Publication of Chemical Research, we affirm the use of standard ethical practices when housing and handling research animals, as ensured by the Emory University’s Institutional Animal Care and Use Committee (IACUC) and the Division of Animal Resources (DAR) through a rigorous protocol review, amendment, and approval process. A total of 220 C57BL6/J male mice (aged 11–12 weeks, weight, 22–30 g) were used for these studies. Each mouse was weighed, recorded, and ear-clipped for identification. The dosing for each mouse was calculated based on individual body weights to achieve a final dose of 10 mg/kg. Animals were anesthetized using isoflurane gas before receiving a single dose of drug prepared as described above using a 22-gauge gavage needle attached to a calibrated syringe.
Time points for tissue collection were 1, 2, 4, 8, and 18 h for unfasted mice, and 1, 2, 4, 8, and 24 h for fasted mice. At each time point, the mice (n = 4 per compound per time point) were anesthetized using isoflurane and subjected to cardiac puncture for blood collection into EDTA-coated tubes. The collected blood samples were immediately placed on ice before the mice were humanely euthanized via cervical dislocation. Brain, liver, lungs, and kidneys were harvested, rinsed in PBS, and placed in prelabeled tubes. Tissues were flash-frozen in liquid nitrogen then transferred to dry ice for storage.
Blood samples were collected into EDTA-coated tubes and centrifuged at 400 RCF for 10 min at 4 °C to separate plasma from the cellular components. The plasma layer was carefully pipetted off and stored in separate prelabeled and preweighed tubes. All tissues were stored at −80 °C until time for processing.
Tissues were weighed (∼50 mg) into homogenization tubes and ACN containing a 10 μM ITSD was added to achieve a final solvent-to-tissue ratio of 4:1. Homogenization beads were added, and the tissues were processed (Biotage Lysera, part no. 19–060) using two 20 s pulses with a 10 s interval period. Homogenate was centrifuged at maximum speed for 1 h, supernatant collected and analyzed via LC-MS using the method described previously. For plasma samples, a 50 μL aliquot was added 200 μL of ACN containing ITSD. The mixture was vortexed thoroughly and then centrifuged to precipitate proteins, with the supernatant collected and analyzed via LC-MS. […]

A short description of another series: Cytotoxicity, MTT assay. To be noted: human.
Series [4] can be described thus: Cytotoxicity, ATP luminescence (Cell Titer Glow) assay. To be noted: human. A general note: ATP-based viability assays read luminescence as a measure of living cells.
Protocol: (§1) To measure cytotoxicity, HeLa-derived TZM-bl cells , were treated with serial dilutions of each drug, and viability was assessed after 48 h. Two methods were used: an ATP luminescence assay, which measures cellular ATP levels as an indicator of metabolic activity (compounds 8a–d), and an MTT assay, which evaluates cell viability via mitochondrial enzymatic activity (compounds 15b, 21a, and 21b).
(§2) The TZM-bl cell line (BEI Resources, ARP-8129) was used to evaluate both cell viability and HIV pseudovirus infectivity reduction. Cytotoxicity in this cell line was measured via two methods. The first method, an ATP luminescence assay, was used for compounds 15a, 15b, 21a, and 21b as such: 6000 TZM-bl cells per well were seeded in a 96-well plate and incubated at 37 °C with 5% CO2 for 24 h. Compounds were prepared as serial dilutions (final concentrations of 1, 0.2, 0.04, 0.008, and 0.0016 μM) in complete DMEM with DEAE-Dextran at 40 μg/mL to mimic HIV infectivity conditions. Solutions were added to the cells and incubated for another 48 h. Viability was assessed using the Promega Cell Titer Glow (CTG) Assay (cat No. G9242) by adding a 50% PBS-CTG solution to each well and measuring luminescence, which correlates with ATP levels, on an Agilent BioTek Synergy HT reader. Cytotoxicity of compounds 8a–d was determined using a colorimetric assay based the conversion of MTT (3-(4,5-dimethylthiazol-2-yl)-2,5-diphenyltetrazolium bromide) to formazan as described previously. TZM-bl cells were plated into 96-well tissue culture plates 1 day prior to performing the MTT assay. A series of 10 3-fold dilutions of each compound was performed from a starting concentration of 10 mM and each dilution was tested for a reduction in cell viability according to the manufacturer’s instructions (CyQuant MTT Cell Viability Assay, ThermoFisher, V13154). Wells containing TZM-bl cells with media only were used as a control. Briefly, serial dilutions of each test compound were added to the plated TZM-bl cells. At 48 h, the media was removed and replaced with 100 mL of fresh culture medium. 10 mL of 12 mM MTT solution was added to each well and incubated at 37 °C for 4 h. 85 mL of supernatant was then removed from each well and replaced with 50 mL of DMSO. Following a 10 min incubation at 37 °C, the absorbance of each well was determined at 540 nm using a Biotek Synergy Neo2 multimode reader and Gen5 v3.02 software.
Another series concerns Caco-2 cells. Put plainly: Control: release of membrane-associated prodrug into media after wash. It is filed as in vitro ADME, human. Conditions: 10 μM, 15 min at 37 °C, media at 0, 5 and 15 min postwash. Here is the method:
After characterizing the impact of membrane dynamics on the packaging of ω-unfunctionalized prodrugs into CMs, we proceeded to screen the ω-CF3-functionalized BOG lipid prodrugs in our CM assay. All collections were done at the 20 h time point to allow full diffusion of prodrug out of the membrane. […] However, CM concentration strongly correlated with c Log D values (R ^2 = 0.89, Figure c), consistent with trends observed for ω-unfunctionalized prodrugs and highlighting the role of lipophilicity on CM incorporation. […] This is further supported by the 2.4-fold increase in CM concentration observed for 15a compared to TXL, where the only difference is the inclusion of the terminal CF3 group. […] Therefore, as an important control experiment, Caco-2 cells were incubated with 10 μM of TXL or compound 21a (n = 6 per group) in the presence of the lipid mixture for 15 min at 37 °C. After incubation, the cells were washed three times with PBS, and fresh drug-free growth media was added. Aliquots of the media were collected at 0, 5, and 15 min postwash. Samples were analyzed by LC-MS/MS for the presence of TXL and 21a.

[5] abbreviates: in vivo, po, 10 mg/kg, single oral dose 10 mg/kg, fed mice, read-out: Liver Tmax.
Setting [6] is: in vivo, po, 10 mg/kg, single oral dose 10 mg/kg, fed mice, read-out: Lung Tmax.
The mark [7] stands for this setting: in vivo, po, 10 mg/kg, single oral dose 10 mg/kg, fed mice, read-out: Plasma Tmax.
The mark [8] stands for this setting: in vivo, single oral dose 10 mg/kg, fed mice.
Where [9] appears, read: in vivo, single oral dose 10 mg/kg, fed mice, read-out: Plasma Cmax.
Where [10] appears, read: single oral dose 10 mg/kg, fed mice.
The mark [11] stands for this setting: liver, single oral dose 10 mg/kg, fed mice, read-out: Liver Tmax.
Where [12] appears, read: plasma, single oral dose 10 mg/kg, fed mice.
[13] abbreviates: plasma, single oral dose 10 mg/kg, fed mice, read-out: Plasma Tmax.

Protocol for Cytotoxicity, MTT assay: as §1, §2

Take `C[C@H](Cn1cnc2c(N)ncnc21)OCP(=O)(O)OCCCOCCCCCCCCCCCCCCCC(F)(F)F` [15a, Ammonium[(1R)-2-(6-aminopurin-9-yl)-1-methyl-ethoxy]methyl-[3-(16,16,16-trifluorohexadecoxy)propoxy]phosphinate]: the half-life at 3 µM in series [1] and in series [2] was more than 2 h each time. The Tmax – broadly, the time from dosing to the highest level – in series [3] (setting [5]) came out at 2 h; in series [3] (setting [6]), 8 h; in series [3] (setting [7]), 2 h. In addition, the AUC(0-t) in series [3] (setting [8]) came to 706 ng·h/mL. The Cmax (in general, the maximum level reached in the sampled fluid or tissue) in series [3] (setting [9]) was 127 ng/mL. In addition, the “Liver AUC0-18h” value in series [3] (setting [10]) is 190,000 h*ng/g. Moreover, the “Liver Cmax” value in series [3] (setting [10]) is listed as 27,000 ng/g. Also, the “Lung Cmax” value in series [3] (setting [10]) stood at 729 ng/g. Moreover, the CC50 (as a rule, the concentration that lowers cell viability or growth by half) at 48 h in the series “Cytotoxicity, MTT assay” was more than 10000 nM; in series [4], more than 1000 nM.

On to `C[C@H](Cn1cnc2c(N)ncnc21)OCP(=O)(O)OC[C@H](COCCCCCCCCCCCCCCCC(F)(F)F)OCc1ccccc1` [21a, Ammonium[(1R)-2-(6-Aminopurin-9-yl)-1-methyl-ethoxy]methyl-[(2S)-2-benzyloxy-3-(16,16,16-trifluorohexadecoxy)propoxy]phosphinate], for which, in series [1], the half-life at 3 µM is more than 2 h. Also, the half-life at 3 µM in series [2] is more than 2 h. Further, in the series with Caco-2 cells, the “prodrug concentration in media postwash” value is listed as “below the limit of detection”. For the same compound, in series [3] (fed mice), the “improvement in lung AUC over TXL” value amounted to 10 fold; the “improvement in lung AUC over non-BOG counterpart (21a vs 15a, 21b vs 15b)” value is given as 9 fold; the “increase in plasma AUC relative to TXL” value worked out at 16 fold; the “increase in plasma AUC relative to non-BOG counterpart (21a vs 15a, 21b vs 15b)” value amounted to 7 fold. Further, in series [3] (fed mice), the “increase in plasma Cmax relative to TXL” value came to 32 fold and the “increase in plasma Cmax relative to non-BOG counterpart (21a vs 15a, 21b vs 15b)” value amounted to 7 fold. Moreover, the Tmax in series [3] (setting [11]) was found to be 4 h. The time of peak concentration (Tmax) in series [3] (lung, po, 10 mg/kg, tissue not stated, read-out: Tmax (fed)) is 8 h. In addition, in series [3] (setting [12]), the Cmax was determined as 915 ng/mL and the AUC(0-t) amounted to 4710 ng·h/mL. In series [3] (setting [13]), the time to peak (Tmax) was 1 h. In series [3] (setting [10]), the “Liver AUC0-18h” value is reported as 564,000 h*ng/g, the “Liver Cmax” value is 37,600 ng/g, the “Lung AUC0-18h” value is recorded as 72,300 h*ng/g and the “Lung Cmax” value is 7,330 ng/g. Moreover, the CC50 at 48 h in series [4] (TZM-bl cells) was more than 1000 nM.

In the case of `C[C@H](Cn1cnc2c(N)ncnc21)OCP(=O)(O)OC[C@H](COCCCCCCCCCCCCCCCCCC(F)(F)F)OCc1ccccc1` [21b, Ammonium[(1R)-2-(6-aminopurin-9-yl)-1-methyl-ethoxy]methyl-[(2S)-2-benzyloxy-3-(18,18,18-trifluorooctadecoxy)propoxy]phosphinate], in series [1], the half-life at 3 µM was more than 2 h. In series [2], the half-life at 3 µM was more than 2 h. Also, in series [3] (fed mice), the “improvement in lung AUC over TXL” value was 4 fold; the “improvement in lung AUC over non-BOG counterpart (21a vs 15a, 21b vs 15b)” value stood at 4 fold; the “increase in plasma AUC relative to TXL” value came to 15 fold; the “increase in plasma AUC relative to non-BOG counterpart (21a vs 15a, 21b vs 15b)” value is recorded as 5 fold. Besides, in series [3] (fed mice), the “increase in plasma Cmax relative to TXL” value is 28 fold and the “increase in plasma Cmax relative to non-BOG counterpart (21a vs 15a, 21b vs 15b)” value came out at 8 fold. Also, the Tmax in series [3] (setting [11]) turned out to be 4 h. Further, the Tmax in series [3] (lung, single oral dose 10 mg/kg, fed mice, read-out: Lung Tmax) worked out at 8 h. Besides, in series [3] (setting [12]), the Cmax was 802 ng/mL and the AUC(0-t) is 4530 ng·h/mL. Besides, in series [3] (setting [13]), the time of peak concentration (Tmax) amounted to 2 h. In series [3] (setting [10]), the “Liver AUC0-18h” value was 218,000 h*ng/g, the “Liver Cmax” value is on record as 22,000 ng/g, the “Lung AUC0-18h” value is recorded as 31,100 h*ng/g and the “Lung Cmax” value is 3,000 ng/g. This compound also yielded a CC50 at 48 h in series [4] (TZM-bl cells) of more than 1000 nM.

Regarding `CCCCCCCCCCCCCCCCOCCCOP(=O)(O)CO[C@H](C)Cn1cnc2c(N)ncnc21` [TXL, hexadecyloxypropyl (HDP)-TFV, reference compound], in series [2], the half-life at 3 µM is more than 2 h. Besides, the “prodrug concentration in media postwash” value in the series on Caco-2 cells is reported as “below the limit of detection”. Further, the Tmax was 2 h in series [3] (setting [5]); 8 h in series [3] (setting [6]); 8 h in series [3] (setting [7]); 8 h in series [3] (in vivo, po, 10 mg/kg, tissue not stated, read-out: Tmax (fed)). For the same compound, the AUC(0-t) in series [3] (setting [8]) came out at 298 ng·h/mL. Moreover, in series [3] (setting [9]), the Cmax is 29.1 ng/mL. Also, the “Liver AUC0-18h” value in series [3] (setting [10]) is given as 25,600 h*ng/g. Besides, the “Liver Cmax” value in series [3] (setting [10]) is on record as 2,660 ng/g. For the same compound, in series [3] (setting [10]), the “Lung Cmax” value came out at 583 ng/g. Moreover, the CC50 at 48 h was more than 10000 nM in “Cytotoxicity, MTT assay” and more than 1000 nM in series [4].
